# In publication PMC5390312, “Genetic visualization of protein interactions harnessing liquid phase transitions” (Scientific Reports, 2017):
# Target: T1, X-linked inhibitor of apoptosis protein (XIAP) (Homo sapiens, UniProt P98170)
# T1 construct: BIR3 domain (XIAP-AG fusion); with Smac N-terminal region (SmacNT-PB1), displaced
# Test: Fluoppi high-content assay in HEK293 cells, Smac/XIAP dissociation
# Type: cell-based
# T1 sequence (P98170 241-356 limits assumed): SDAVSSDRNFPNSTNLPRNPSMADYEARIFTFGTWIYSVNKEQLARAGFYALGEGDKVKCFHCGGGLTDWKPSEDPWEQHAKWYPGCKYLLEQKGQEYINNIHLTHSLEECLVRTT
# T1 sequence (Q9NR28 56-239 partner): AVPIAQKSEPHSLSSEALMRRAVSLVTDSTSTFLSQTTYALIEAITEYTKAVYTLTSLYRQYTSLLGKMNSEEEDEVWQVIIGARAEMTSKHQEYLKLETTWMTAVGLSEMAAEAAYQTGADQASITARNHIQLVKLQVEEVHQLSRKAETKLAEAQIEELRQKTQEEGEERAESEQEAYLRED
structure (smiles),measurement,value
CN[C@@H](C)C(=O)N[C@H]1CN(C(=O)CC(C)C)CC[C@H]2CC[C@@H](C(=O)NC(c3ccccc3)c3ccccc3)N2C1=O [AT-406],IC50,9.2 ± 1.2 µM
